# Laboratory results from PubChem BioAssay (NCI).
#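 The compound was tested at five concentrations on cells cultured in 96-well plates, with a 48-hour exposure period. GI50 is the concentration that inhibits growth by half. TGI: total growth inhibition.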
# Assays:
# Test in all cases: DTP human tumour cell line panel, 48 h
# [1] = test system: MCF7 breast
# [2] = test system: A549 NSCLC
# [3] = test system: NCI-H23 lung
# [4] = test system: SR leukemia
# [5] = test system: EKVX NSCLC
# [6] = test system: A498 renal
# [7] = test system: SK-OV-3 ovarian
# [8] = test system: OVCAR-8 ovarian
# [9] = test system: UACC-257 melanoma
# [10] = test system: HS 578T breast
# [11] = test system: ACHN renal
# [12] = test system: DU-145 prostate
# [13] = test system: SNB-75 CNS
# [14] = test system: SN12C renal
# [15] = test system: HT29 colon
SMILES,TGI [1],TGI [2],TGI [3],TGI [4],TGI [5],TGI [6],TGI [7],TGI [8],TGI [9],TGI [10],TGI [11],TGI [12],TGI [13],TGI [14],TGI [15],GI50 [4]
CCC(=O)NC(NNS(=O)(=O)c1ccc(C)cc1)(C(F)(F)F)C(F)(F)F,> 100 µM,> 100 µM,> 100 µM,> 100 µM,> 100 µM,> 100 µM,> 100 µM,> 100 µM,> 100 µM,> 100 µM,> 100 µM,> 100 µM,> 100 µM,–,–,–
CC(C)(C)C1CC[C@H](O)[C@H]([C@@H](O)CC2CC(=O)N(c3ccccc3)C(=O)C2)C1 (some centres undefined),> 100 µM,> 100 µM,> 100 µM,> 100 µM,> 100 µM,> 100 µM,–,> 100 µM,> 100 µM,> 100 µM,> 100 µM,> 100 µM,> 100 µM,> 100 µM,> 100 µM,–
COc1ccc(-c2c(C#N)c(N)nc(Sc3ccccc3N)c2C#N)cc1,> 65.7 µM,> 100 µM,> 100 µM,> 100 µM,> 100 µM,19.6 µM,32.6 µM,45.7 µM,> 100 µM,45.3 µM,51.4 µM,> 100 µM,–,> 100 µM,> 100 µM,–
CSCCCNC(=O)c1csc(-c2csc(CCNC(=O)CNC(=O)OC(C)(C)C)n2)n1,> 100 µM,> 100 µM,> 100 µM,> 100 µM,> 100 µM,> 100 µM,> 100 µM,> 100 µM,> 100 µM,> 100 µM,> 100 µM,> 100 µM,> 100 µM,> 100 µM,> 100 µM,–
CCOP(=O)(OCC)/C(C#N)=C/c1cccn1C,> 100 µM,> 100 µM,> 100 µM,> 100 µM,> 100 µM,> 100 µM,> 100 µM,> 100 µM,> 100 µM,> 100 µM,> 100 µM,> 100 µM,> 100 µM,> 100 µM,> 100 µM,–
NNC(=O)c1cc(Cl)ccc1NC(=O)C12CC3CC(CC(C3)C1)C2,> 100 µM,48.2 µM,> 100 µM,88.3 µM,–,–,> 100 µM,> 100 µM,96.2 µM,> 100 µM,77.8 µM,> 100 µM,> 100 µM,62.2 µM,48 µM,–
N#Cc1ccc(N=NN2CCCC2)cc1,> 100 µM,–,> 100 µM,> 100 µM,> 100 µM,> 100 µM,> 100 µM,> 100 µM,> 100 µM,> 100 µM,> 100 µM,> 100 µM,> 100 µM,> 100 µM,–,–
Cc1cc(O)c(C(O)c2ccccn2)cc1O (centres undefined),43.8 µM,> 100 µM,42.6 µM,10.2 µM,36.5 µM,–,–,40.8 µM,–,> 100 µM,18.4 µM,> 100 µM,31.9 µM,43.7 µM,44 µM,–
O=C1/C(=C/c2ccc([N+](=O)[O-])cc2)Oc2cc(O)ccc21,> 100 µM,92.9 µM,> 100 µM,46.1 µM,96.3 µM,–,71.6 µM,> 100 µM,> 100 µM,47.9 µM,56.1 µM,> 100 µM,> 100 µM,87.1 µM,–,–
CCc1cn(C2CC(CO)C(CO)S2)c(=O)[nH]c1=O (centres undefined),> 100 µM,> 100 µM,> 100 µM,> 100 µM,> 100 µM,> 100 µM,> 100 µM,> 100 µM,> 100 µM,> 100 µM,> 100 µM,> 100 µM,> 100 µM,> 100 µM,> 100 µM,> 100 µM
CCSc1c2cc(OC)ccc2nc2ccc(OC)cc12,> 100 µM,> 100 µM,> 86.1 µM,> 23.5 µM,> 54 µM,30 µM,> 92.5 µM,> 59.2 µM,30.4 µM,> 100 µM,> 87.4 µM,> 72.5 µM,40.3 µM,50.9 µM,98 µM,–
c1ccc2c(c1)n1c(N3CCCC3)[n+]3ccccc3c1c1c3cccc[n+]3c(N3CCCC3)n21,> 100 µM,> 100 µM,> 100 µM,> 100 µM,> 100 µM,> 100 µM,–,93.3 µM,> 100 µM,> 100 µM,> 100 µM,> 100 µM,68.5 µM,> 100 µM,–,–
COc1ccc(/C=N/n2c(Cc3ccccc3)n[nH]c2=O)c(OC)c1,> 100 µM,> 58.4 µM,> 65.4 µM,> 100 µM,99.4 µM,> 66 µM,> 60.7 µM,> 59.6 µM,> 100 µM,37.5 µM,> 56.5 µM,> 100 µM,28.6 µM,> 100 µM,> 64.5 µM,–
CCOC1OC(CO[Si](C)(C)C(C)(C)C)C(O)CC1n1ccc(=O)[nH]c1=O (centres undefined),88.7 µM,> 100 µM,> 100 µM,> 100 µM,> 100 µM,> 100 µM,–,> 100 µM,> 100 µM,> 100 µM,> 100 µM,> 100 µM,> 100 µM,> 100 µM,> 100 µM,–
N#Cc1ccccc1NC(=O)C(O)C(O)C(O)C(O)C=O (centres undefined),> 100 µM,> 100 µM,> 100 µM,> 100 µM,> 100 µM,> 100 µM,> 100 µM,> 100 µM,> 100 µM,> 100 µM,> 100 µM,> 100 µM,> 100 µM,> 100 µM,> 100 µM,–
COc1ccc(-n2c(C)nc3ccc(NC4OC(COC(C)=O)C(OC(C)=O)C(OC(C)=O)C4OC(C)=O)cc3c2=O)cc1 (centres undefined),> 100 µM,–,> 100 µM,> 100 µM,> 100 µM,> 100 µM,–,> 100 µM,> 100 µM,> 100 µM,> 100 µM,> 100 µM,> 100 µM,> 100 µM,> 100 µM,–

SMILES,TGI [1],TGI [2],TGI [3],TGI [4],TGI [5],TGI [6],TGI [7],TGI [8],TGI [9],TGI [10],TGI [11],TGI [12],TGI [13],TGI [14],TGI [15],GI50 [4]
COC(=O)c1c(C)c2c(c(C)c1O)OC(=O)c1c(C)cc(O)c(C=O)c1O2,> 100 µM,> 100 µM,> 100 µM,> 100 µM,> 100 µM,–,> 100 µM,> 100 µM,> 100 µM,> 100 µM,> 100 µM,> 100 µM,–,> 100 µM,> 100 µM,–
CCOC(=O)C1=C(C)N(Cc2ccccc2)C2(O)C=CC(=O)C3C(=O)N(c4ccccc4)C(=O)C132 (centres undefined),12.7 µM,10.4 µM,5.36 µM,2.88 µM,22.5 µM,28.1 µM,19.3 µM,3.32 µM,7.59 µM,34 µM,3.25 µM,7.63 µM,–,10.6 µM,3.33 µM,–
O=C(O)c1cc(-c2ccc3cc(O)c(O)cc3c2)ccc1O,> 12.5 µM,> 12.5 µM,> 12.5 µM,> 12.5 µM,–,> 12.5 µM,> 12.5 µM,> 12.5 µM,> 12.5 µM,> 12.5 µM,> 12.5 µM,> 12.5 µM,> 12.5 µM,> 12.5 µM,> 12.5 µM,–
O=C(Cn1c(C(=O)/C=C/c2ccc(Cl)c(Cl)c2)nc2ccccc21)c1ccccc1,82.2 µM,59.8 µM,> 100 µM,80 µM,42.8 µM,67.4 µM,> 100 µM,–,> 100 µM,56.1 µM,93.5 µM,> 100 µM,–,34.4 µM,45.5 µM,–
CC1=NN(c2nc(N)nc(CCl)n2)C(C)(C)C1,> 100 µM,> 100 µM,28.6 µM,> 69.7 µM,42.1 µM,> 84.4 µM,> 100 µM,> 55.5 µM,> 100 µM,> 100 µM,31 µM,> 100 µM,> 75.6 µM,> 68.7 µM,> 92.7 µM,–
COC(=O)/C=C1\C(=O)Nc2ccc(Br)cc21,3.01 µM,12.3 µM,3.52 µM,1.56 µM,4.49 µM,11.6 µM,10.1 µM,5.78 µM,3.07 µM,> 34.4 µM,3.36 µM,4.38 µM,3.87 µM,3 µM,3.68 µM,–
NC(N)=NS(=O)(=O)c1ccc(NCc2cccc3c(=O)c4ccc(Cl)cc4oc23)cc1,> 25 µM,> 25 µM,> 21.8 µM,> 25 µM,> 21.9 µM,> 15.3 µM,> 17.3 µM,> 13.7 µM,> 25 µM,13.9 µM,> 13.6 µM,17.3 µM,8.64 µM,> 14.2 µM,> 14.6 µM,–
ON[C@@H]1C=C[C@H](n2cnc3c(NC4CC4)ncnc32)C1,> 100 µM,> 100 µM,> 100 µM,> 100 µM,> 100 µM,> 100 µM,> 100 µM,> 100 µM,> 100 µM,> 100 µM,> 100 µM,> 100 µM,> 100 µM,> 100 µM,> 100 µM,–
O=C1CSc2ccnc(=O)n21,> 100 µM,> 100 µM,> 100 µM,> 100 µM,> 100 µM,> 100 µM,> 100 µM,> 100 µM,> 100 µM,> 100 µM,> 100 µM,> 100 µM,> 100 µM,> 100 µM,–,–
COc1cc2c(cc1OCCCN1CCOCC1)N=C[C@@H]1CCCN1C2=O,> 100 µM,> 100 µM,–,39.8 µM,47.1 µM,30.1 µM,87.5 µM,98.3 µM,78.9 µM,> 100 µM,92 µM,76.9 µM,–,> 100 µM,47.7 µM,–
COc1ccc(-n2c(C)nc3ccc(NC4OCC(OC(C)=O)C(OC(C)=O)C4OC(C)=O)cc3c2=O)cc1 (centres undefined),> 100 µM,–,> 100 µM,> 100 µM,> 100 µM,> 100 µM,–,> 100 µM,> 100 µM,> 100 µM,> 100 µM,> 100 µM,> 100 µM,> 100 µM,> 100 µM,–
C=C(Cl)C(Cl)(CBr)CCCC(C)C (centres undefined),28.5 µM,54.8 µM,> 100 µM,> 100 µM,35 µM,34 µM,> 100 µM,47.6 µM,32.2 µM,26.9 µM,26.2 µM,23.7 µM,41.5 µM,> 100 µM,15.7 µM,–
Fc1nc(-c2c3ccccc3c3sc4ccccc4n23)nc(N2CCOCCOCCOCCOCC2)n1,> 100 µM,> 100 µM,> 100 µM,68.6 µM,> 100 µM,> 100 µM,> 100 µM,> 100 µM,> 100 µM,> 100 µM,> 100 µM,> 100 µM,5.87 µM,> 100 µM,> 100 µM,–
Cc1ccccc1-n1c(=O)nc2n(-c3ccc(C(C)(C)C)cc3)c3ccccc3cc-2c1=O,59.9 µM,> 100 µM,58.2 µM,59.7 µM,64.6 µM,86.6 µM,–,42.9 µM,37.1 µM,79.7 µM,> 100 µM,77.1 µM,66.3 µM,38.1 µM,34.6 µM,–
CCOC(=O)C1Cc2ccc(C)cc2C1=O (centres undefined),> 100 µM,> 100 µM,> 100 µM,> 100 µM,> 100 µM,–,> 100 µM,> 100 µM,> 100 µM,> 100 µM,> 100 µM,> 100 µM,> 100 µM,> 100 µM,> 100 µM,–
O=C(O)CNc1ncc2c(n1)-c1ccccc1OC2,> 100 µM,> 100 µM,> 100 µM,> 100 µM,> 100 µM,–,> 100 µM,> 100 µM,> 100 µM,> 100 µM,> 100 µM,> 100 µM,> 100 µM,> 100 µM,> 100 µM,–
